This passage reports IC50 results from ChEMBL document CHEMBL2150949, “Dibenzocycloheptanoids from the leaves of Cinnamomum subavenium” (J Nat Prod, 2012).

What is called IC50 is the concentration needed to halve the response being measured. A high value points to lower potency.

The structures appear in SMILES notation.

The test in a line: Inhibition of Bacillus stearothermophilus alpha-glucosidase type 4. Details: species or system Geobacillus stearothermophilus.
`CC/C=C/CCO[C@@H]1O[C@H](CO)[C@@H](O)[C@H](O)[C@H]1O` showed an IC50 above 150 µM.

As for `COc1cc([C@@H]2Oc3c(OC)cc(CCCO)cc3[C@@H]2CO[C@@H]2OC[C@@H](O)[C@H](O)[C@H]2O)ccc1O`, half-maximal inhibition (IC50) was put at 77.1 µM.

For `COCC1=CCc2cc(OC)ccc2-c2cc(O)c(OC)cc21`, the IC50 is 118 µM.

`CCCC(=O)c1c(O)cc(O)cc1O[C@@H]1O[C@H](CO)[C@@H](O)[C@H](O)[C@H]1O` displayed an IC50 above 150 µM.

As for `O=C(CCc1ccc(O)cc1)c1c(O)cc(O)cc1O[C@@H]1O[C@H](CO)[C@@H](O)[C@H](O)[C@H]1O` [PHLORIZIN], 60.5 µM corresponded to half-maximal inhibition (IC50). In other words, the double-digit micromolar range.

`C[C@H]1O[C@H](O[C@H]2[C@H](O)[C@@H](O)[C@@H](O[C@H]3[C@H](O)[C@@H](O)C(O)O[C@@H]3CO)O[C@@H]2CO)[C@H](O)[C@@H](O)[C@@H]1N[C@H]1C=C(CO)[C@@H](O)[C@H](O)[C@H]1O` (some centres undefined) [ACARBOSE] showed an IC50 of 0.034 µM.

As to `COc1cc2c(cc1O[C@@H]1O[C@H](CO)[C@@H](O)[C@H](O)[C@H]1O)-c1ccccc1CC=C2CO` [SUBAVENOSIDE D], the IC50 was determined as 50.7 µM.

As to `COc1cc2c(cc1O)-c1ccccc1CC=C2CO[C@@H]1O[C@H](CO)[C@@H](O)[C@H](O)[C@H]1O` [SUBAVENOSIDE A], the midpoint of inhibition, the IC50, lay at 142 µM.

`C=CCc1ccc(O[C@@H]2O[C@H](CO[C@@H]3OC[C@](O)(CO)[C@H]3O)[C@@H](O)[C@H](O)[C@H]2O)cc1` yielded an IC50 above 150 µM.

The molecule `COCC1=CCc2cc(OC)ccc2-c2cc(O[C@@H]3O[C@H](CO)[C@@H](O)[C@H](O)[C@H]3O)c(OC)cc21` [SUBAVENOSIDE E] showed an IC50 of 19 µM.

In turn, `O=C1C[C@H](c2ccc(O)cc2)Oc2cc(O)cc(O[C@@H]3O[C@H](CO)[C@@H](O)[C@H](O)[C@H]3O)c21` displayed an IC50 of 39.8 µM.

Regarding `C[C@@H]1O[C@@H](OC[C@H]2O[C@@H](Oc3c(-c4ccc(O)cc4)oc4cc(O)cc(O)c4c3=O)[C@H](O)[C@@H](O)[C@@H]2O)[C@H](O)[C@H](O)[C@H]1O` [NICOTIFLOROSIDE], the IC50 came to 110 µM. This IC50 is about 2.8-fold higher than that of the molecule before.

`OCCc1ccc(O)c(O)c1` [HYDROXYTYROSOL] displayed an IC50 of 109 µM.

Molecule `O=C1C[C@@H](c2ccc(O)cc2)Oc2cc(O)cc(O[C@@H]3O[C@H](CO)[C@@H](O)[C@H](O)[C@H]3O)c21` showed an IC50 of 28.3 µM.
